In US20200181192A1, “DISULFIDE BIOCONJUGATION” (The Regents of the University of California, priority 2017, published 2020):

Columns and labels:
[1] = Solubility in polar solvents; assay type: physicochemical; settings: for solubility in polar solvents: acetonitrile, methanol; for solubility in methanol:water mixture: 9:1 methanol:water
Procedure: Previous bicyclobutane molecules (1a, 1b) were determined by Baran and coworkers to be bench stable so no further studies were conducted on their stability.

[2] = determined by Baran and coworkers; no further studies conducted; cited from earlier work
[3] = in solvent left on the bench, over 2 days
[4] = in diethyl ether; diphenyl disulfide, benzyl amine, diphenyl acetic acid, 1-butanethiol; GC-MS
From the text: To determine the stability and selectivity of bicyclobutane molecules endo-3, exo-3 were solubilized in diethyl ether and tested with a variety of functional groups (diphenyl disulfide, benzyl amine, diphenyl acetic acid, and 1-butanethiol) then analyzed on a GC-MS to confirm the continued presence of starting materials.

Row | solubility in polar solvents [1] | SMILES | bench stability [2] | stability in polar solvents by 1H-NMR [3] | solubility in methanol:water mixture [1] | reaction with functional groups (continued presence of starting materials) [4]
1 | not be completely soluble | Cc1ccc(S(=O)(=O)C23CC2C3)cc1 (stereo not shown) [1b, 1-tosylbicyclo[1.1.0]butane] | bench stable | – | – | –
2 | not be completely soluble | O=S(=O)(c1ccccc1)C12CC1C2 (stereo not shown) [1a, 1-(phenylsulfonyl)bicyclo[1.1.0]butane] | bench stable | – | – | –
3 | – | OC[C@H]1[C@H]2C[C@@H]12 [endo-3, Endo-Bicyclo[1.1.-]butane-2-methanol] | – | no change | soluble | apparent only in the case with diphenyl acetic acid and 1-butane thiol
4 | – | OC[C@@H]1[C@H]2C[C@@H]12 [exo-3, Exo-Bicyclo[1.1.-]butane-2-methanol] | – | no change | soluble | apparent only in the case with diphenyl acetic acid and 1-butane thiol
